We go through four compounds from paper PMC8874959 (Viruses, 2022).

For data set [1] the following is noted: cited from earlier work; for Plasma protein binding: Table S3, ref DrugBank, PubChem, Warhurst, et al JAC 2003, Schroeder and Gerber Toxicol. Rep. 2014.
Data set [2] relates to SARS-CoV-2. As to conditions: cited from earlier work.
The conditions of data set [3]: ref DrugBank; PubChem; Warhurst, et al JAC 2003; Schroeder and Gerber Toxicol. Rep. 2014; cited from earlier work.
In another data set the test system is SARS-CoV-2 Gamma strain. The data set can be described thus: microbe, parasite or virus in culture. It is filed as cell-based. As to conditions: Severe acute respiratory syndrome coronavirus 2; Calu-3, Gamma strain, MOI 0.1, 48 hpi.
Another data set deals with tuberculosis. As to conditions: cited from earlier work.
Data set [4] is described as follows: in vitro. In kind it is cell-based. As to conditions: African green monkey.
A short description of data set [5]: in vitro. In kind it is cell-based. As to conditions: human.
Data set [6] relates to SARS-CoV-2. The settings on record: Vero-E6, cited from earlier work.
The conditions of data set [7]: PBPK input, cited from earlier work.
For data set [8] the following is noted: cited from earlier work; for Cmax: human plasma.
Data set [9] has as its system SARS-CoV-2-infected monocytes. In kind it is cell-based, human.
Data set [10] has as its system SARS-CoV-2. In kind it is cell-based.
The test system of data set [11] is SARS-CoV-2. In kind it is cell-based. This is another data set of the same source.

≈ marks a conversion by molar mass, not a printed value. Entries after “also recorded” stand apart in the source; their conditions may differ. Like-named read-outs stand apart in the source and are kept apart here.

For `CCN(CCO)CCCC(C)Nc1ccnc2cc(Cl)ccc12` (stereo not drawn) [Hydroxychloroquine, hydroxychloroquine], the Plasma protein binding in data set [1] was 50%. In the data set with SARS-CoV-2 [2], the “Antiviral activity in SARS-CoV-2-infected Calu-3 cells” value was “lacks antiviral activity”. Moreover, in [3], the “Lipinski’s rule of five” value is “Yes”; the LogP (commonly a log measure of how a compound divides between an organic and an aqueous phase) is 4.12; the Physiological charge result is on record as “+2”; the pKa1 is less than 4.0. In data set [3], the pKa2 is 8.3 and the pKa3 is listed as 9.7.

For `OC(c1cc(C(F)(F)F)nc2c(C(F)(F)F)cccc12)C1CCCCN1` (stereo not drawn) [Mefloquine], in [1] (PBPK input, ref 12 (supplement)), the Protein binding is 98%. Further, the Plasma protein binding in data set [1] is greater than 98%. For the same compound, in data set [3], the LogP is 3.90, the Water solubility is 38 µg/mL, the pKa1 entry was “lower than 3.0” and the pKa2 was 9.46. Moreover, the pKa3 in data set [3] was 13.79. In the data set on SARS-CoV-2 Gamma strain, the EC50 (commonly the concentration giving half of the maximal effect) turned out to be 1.2 ± 0.4 µM and the 90% effect level (EC90) was put at 2.7 ± 0.3 µM. Also, in the data set on tuberculosis, the Minimal inhibitory concentration was 20 µM (≈ 7.57 µg/mL). Besides, half-maximal cytotoxicity in the data set “in vitro [4]” (CC50) was put at 9.2 ± 0.3 µM. For the same compound, the CC50 – broadly, the concentration giving 50% cytotoxicity – in the data set “in vitro [5]” was 19.9 ± 0.06 µM. In addition, the EC90 (as a rule, the point of the concentration-response curve where the effect stands at 90%) in the data set with SARS-CoV-2 [6] (ref 8 (supplement)) is 3.0643 µg/mL (≈ 8.1 µM). In addition, the EC90 in the data set with SARS-CoV-2 [6] (ref 9 (supplement)) is 2.4552 µg/mL (≈ 6.49 µM). Further, the EC90 with SARS-CoV-2 [6] (ref 10 (supplement)) is 2.5138 µg/mL (≈ 6.64 µM). Further, the Half-life in [7] (ref 11 (supplement)) is 2-4 weeks. For the same compound, in data set [7] (ref 12 (supplement)), the Intrinsic clearance is 10.47 L/h; the Log P (as a rule, the decadic logarithm of the partition coefficient of the neutral form, usually between octanol and water) was 3.87; the “pKa (diprotic base)” value is 8.7. In addition, in [8], the Half-life result is “measured in weeks” and the Cmax – broadly, the peak of the concentration-time curve – is on record as 3279 ng/mL. Besides, the peak concentration (Cmax) in data set [8] (equivalent) is 8.67 µM. In [9], the “Virus-induced IL-6 levels” value is recorded as “reduce the augmentation of these cytokines in a donor-dependent manner”, the “Virus-induced TNF-α levels” value is recorded as “reduce the augmentation of these cytokines in a donor-dependent manner” and the “Virus-induced monocyte death (LDH)” value is “reduce virus-induced monocyte death”. In the data set with SARS-CoV-2 [10], the “Number of viral particles in the endosomes” value is “reduced the number of viral particles in the endosomes”.

As for `CCN(CC)CCCC(C)Nc1ccnc2cc(Cl)ccc12` (stereo not drawn) [Chloroquine], the Plasma protein binding in [1] is recorded as 46-74%. Besides, in the data set with SARS-CoV-2 [2], the “Antiviral activity in SARS-CoV-2-infected Calu-3 cells” value was “inactive; also recorded: lacks antiviral activity”. In “in vitro [4]” (Vero E6, 72 h), this compound gave a CC50 at 72 h of 259 ± 5 µM.

In the data set with SARS-CoV-2 Gamma strain, `CCC(CC)COC(=O)[C@H](C)N[P@](=O)(OC[C@H]1O[C@@](C#N)(c2ccc3c(N)ncnn23)[C@H](O)[C@@H]1O)Oc1ccccc1` [Remdesivir] came in with an EC50 of 0.01 ± 0.008 µM and an EC90 of 0.2 ± 0.02 µM. The midpoint of cytotoxicity in the data set “in vitro [4]”, the CC50, lay at 512 ± 30 µM. In the data set “in vitro [5]”, this compound showed a CC50 of 480 ± 20 µM. In addition, the “Improvement of remdesivir's efficiency” value in the data set on SARS-CoV-2 [11] was determined as 200 fold.
